# Laboratory results: patent publication US20240408169A1 (priority 2023, published 2024)
# Like-named read-outs stand apart in the source and are kept apart here. *1 amine or outer side, *2 acyl side, *3 side chain or, on linkers, in order; H or OH if unused. Where a SMILES comes first, the peptide text is derived from it. Bridges are numbered along the chain shown (N, C = ends). [ ]: non-standard residue; d: D form. The star is where a group is joined. X39 = CN1CCC(n2cc(-c3ccc(-c4ccc(Cl)cc4C[C@@H](C(=O)[*:2])N(C)[*:1])cc3)cn2)CC1; X48 = CN(C)C[C@H]1CN(c2ccc(-c3ccc(Cl)cc3C[C@@H](C(=O)[*:2])N(C)[*:1])cc2)CCO1; X75 = CC(C)C(=O)N1C2C=C(c3ccc(Cl)cc3C[C@@H](C(=O)[*:2])N(C)[*:1])CC1COC2; X114 = CN([C@@H](Cc1cc(Cl)ccc1-c1ccc(OCCN2CCOCC2)cc1)C(=O)[*:2])[*:1]; X36 = Cc1cc(-c2ccc(Cl)cc2C[C@@H](C(=O)[*:2])N(C)[*:1])ccc1N1CCN(C)CC1; X31 = CN1CCC(c2ccc(-c3ccc(Cl)cc3C[C@@H](C(=O)[*:2])N(C)[*:1])cc2)CC1; X6 = CN([C@@H](Cc1cc(Cl)ccc1-c1ccc(-c2cccnc2)cc1)C(=O)[*:2])[*:1]; X116 = CN([C@@H](Cc1cc(Cl)ccc1-c1cnc2c(c1)ncn2C)C(=O)[*:2])[*:1]; X16 = CN([C@@H](Cc1cc(Cl)ccc1-c1cnc2c(cnn2C)c1)C(=O)[*:2])[*:1]; X35 = CN([C@@H](Cc1cc(Cl)ccc1-c1cnc2ccnn2c1)C(=O)[*:2])[*:1]; NMehhhLys(Me) = CN([C@@H](CCCCCCCN(C)[*:3])C(=O)[*:2])[*:1]; X44 = Cc1nnc(-c2ccc(Cl)cc2C[C@@H](C(=O)[*:2])N(C)[*:1])o1; X66 = CN([C@@H](Cc1cc(Cl)ccc1-c1cccnc1)C(=O)[*:2])[*:1]; NMe(hhhLys) = CN([C@@H](CCCCCCCN[*:3])C(=O)[*:2])[*:1]; X28 = CN([C@@H](Cc1cc(Cl)cnc1OC1CCC1)C(=O)[*:2])[*:1]; cBuCO(3,3-F2-1-CF3) = O=C(C1(C(F)(F)F)CC(F)(F)C1)*; X4 = Cc1ccc(Cl)cc1C[C@@H](C(=O)[*:2])N(C)[*:1]; Pro(trans-4-F) = O=C(O)[C@@H]1C[C@@H](F)CN1; Gly(cPr) = N[C@H](C(=O)O)C1CC1
# Tests used:
# CyclinA2/CDK2 = molecular target: T1, CyclinA2/CDK2 (Homo sapiens, UniProt P20248); assay: Fluorescence Polarization (FP) competitive binding assay, Cyclin A2/Cdk2;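 further: plates equilibrated two hours at room temperature before polarization reading, IC50 fitted from eight-concentration compound titration curves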
# T1 construct: purchased CRELUX Protein Services
# NCI-H1048 cells = assay: MTT proliferation assay, NCI-H1048; format: cell-based; conditions: 5 days compound exposure, 1:3 serial dilution starting at 10 μM;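 further: Dose-response in 96-well plates over 8 or 10 concentration points, with exposure spanning 3-4 cell doublings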
# OVCAR3 cells = assay: MTT proliferation assay, OVCAR3; format: cell-based; conditions: 5 days compound exposure, 1:3 serial dilution starting at 10 μM;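 further: compound given as an 8- or 10-point series, one day after plating, with exposure covering roughly 3-4 cell doublings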
# WI-38 cells = assay: MTT proliferation assay, WI-38; format: cell-based; conditions: 3 days compound exposure, 1:3 serial dilution starting at 10 μM;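 further: Eight- or ten-point dilution series, with exposure length chosen to span about three to four cell doublings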
# CyclinE1/CDK2 = molecular target: T2, CyclinE1/CDK2 (Homo sapiens, UniProt P24864); assay: Fluorescence Polarization (FP) competitive binding assay, Cyclin E1/Cdk2;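 further: readings taken after two-hour equilibration at room temperature in HEPES buffer with NaCl, DTT, NP-40 and BSA, IC50 fitted from eight-concentration serial dilution series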
# T2 construct: purchased Eurofins, discovery 14-475
# CyclinB1/CDK1 = molecular target: T3, CyclinB1/CDK1 (Homo sapiens, UniProt P14635); assay: Fluorescence Polarization (FP) competitive binding assay, Cyclin B1/Cdk1;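 further: fluorescence polarization read after equilibration at room temperature, with IC50 taken from serially diluted dose-response curves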
# T3 construct: purchased Eurofins, discovery 14-450
# [1] = 8 nM Cyclin A2/Cdk2, 2 nM FAM probe, average of 2-3 independent experiments, read-out: Cyclin A FP IC50
# [2] = 10 nM Cyclin E1/Cdk2, 2 nM FAM probe, average of 2-3 independent experiments, read-out: Cyclin E FP IC50
# [3] = 10 nM Cyclin B1/Cdk1, 2 nM FAM probe; average of 2-3 independent experiments; read-out: Cyclin B FP IC50
Structure (SMILES),IC50 (CyclinA2/CDK2; [1]),GI50 (NCI-H1048 cells),GI50 (OVCAR3 cells),GI50 (WI-38 cells),IC50 (CyclinE1/CDK2; [2]),IC50 (CyclinB1/CDK1; [3]),IC50 (CyclinA2/CDK2),IC50 (CyclinE1/CDK2),"IC50 (CyclinB1/CDK1; read-out: Cyclin B FP IC50; 10 nM Cyclin B1/Cdk1, 2 nM FAM probe; average of 2-3 independent experiments)"
"CC(C)C[C@@H]1NC(=O)[C@@H](N(C)C(=O)[C@@H](NC(=O)[C@@H]2C[C@@H](F)CN2C(=O)C2(C(F)(F)F)CC(F)(F)C2)C2CC2)CCCCCCCN(C)C(=O)[C@H](Cc2cc(Cl)ccc2-c2ccc(OCCN3CCOCC3)cc2)N(C)C1=O [Example 339] ({cBuCO(3,3-F2-1-CF3)}-[Pro(trans-4-F)][Gly(cPr)][NMehhhLys(Me)]L[X114]; lactam 3-C)",20 nM,10 nM,10 nM,5.62 µM,400 nM,20 nM,,,
"CC(C)C[C@@H]1NC(=O)[C@@H](N(C)C(=O)[C@@H](NC(=O)[C@@H]2C[C@@H](F)CN2C(=O)C2(C(F)(F)F)CC(F)(F)C2)C2CC2)CCCCCCCNC(=O)[C@H](Cc2cc(Cl)ccc2C2=CC3COCC(C2)N3C(=O)C(C)C)N(C)C1=O (stereo partly drawn) [Example 194] ({cBuCO(3,3-F2-1-CF3)}-[Pro(trans-4-F)][Gly(cPr)][NMe(hhhLys)]L[X75]; lactam 3-C)",20 nM,10 nM,10 nM,5.61 µM,540 nM,20 nM,,,
"Cc1cc(-c2ccc(Cl)cc2C[C@H]2C(=O)N(C)CCCCCCC[C@H](N(C)C(=O)[C@@H](NC(=O)[C@@H]3C[C@@H](F)CN3C(=O)C3(C(F)(F)F)CC(F)(F)C3)C3CC3)C(=O)N[C@@H](CC(C)C)C(=O)N2C)ccc1N1CCN(C)CC1 [Example 374] ({cBuCO(3,3-F2-1-CF3)}-[Pro(trans-4-F)][Gly(cPr)][NMehhhLys(Me)]L[X36]; lactam 3-C)",20 nM,10 nM,10 nM,2.22 µM,870 nM,20 nM,,,
[2H]C([2H])([2H])N(C(=O)[C@@H](NC(=O)[C@@H]1C[C@@H](F)CN1C(=O)C1(C(F)(F)F)CC(F)(F)C1)C1CC1)[C@H]1CCCCCCCN(C)C(=O)[C@H](Cc2cc(Cl)ccc2-c2ccc(N3CCN(C)CC3)cc2)N(C)C(=O)[C@H](CC(C)C)NC1=O [Example 422],20 nM,10 nM,10 nM,2.36 µM,420 nM,20 nM,,,
"CC(C)C[C@@H]1NC(=O)[C@@H](N(C)C(=O)[C@@H](NC(=O)[C@@H]2C[C@@H](F)CN2C(=O)C2(C(F)(F)F)CC(F)(F)C2)C2CC2)CCCCCCCN(C)C(=O)[C@H](Cc2cc(Cl)ccc2-c2ccc(-c3cccnc3)cc2)N(C)C1=O [Example 375] ({cBuCO(3,3-F2-1-CF3)}-[Pro(trans-4-F)][Gly(cPr)][NMehhhLys(Me)]L[X6]; lactam 3-C)",20 nM,10 nM,20 nM,16.8 µM,1730 nM,20 nM,,,
CC(C)C[C@@H]1NC(=O)C(N(C)C(=O)[C@@H](NC(=O)[C@@H]2C[C@@H](F)CN2C(=O)C2(C(F)(F)F)CC(F)(F)C2)C2CC2)C/C=C\CCCCN(C)C(=O)[C@H](Cc2cc(Cl)ccc2-c2ccc(N3CCN(C)CC3)cc2)N(C)C1=O (stereo partly drawn) [Example 397],20 nM,10 nM,10 nM,3.56 µM,260 nM,20 nM,,,
"CC(C)C[C@@H]1NC(=O)[C@@H](N(C)C(=O)[C@@H](NC(=O)[C@@H]2C[C@@H](F)CN2C(=O)C2(C(F)(F)F)CC(F)(F)C2)C2CC2)CCCCCCCN(C)C(=O)[C@H](Cc2cc(Cl)cnc2OC2CCC2)N(C)C1=O [Example 140] ({cBuCO(3,3-F2-1-CF3)}-[Pro(trans-4-F)][Gly(cPr)][NMehhhLys(Me)]L[X28]; lactam 3-C)",20 nM,50 nM,130 nM,9.25 µM,120 nM,20 nM,,,
CC(C)C[C@@H]1NC(=O)[C@@H](N(C)C(=O)[C@@H](NC(=O)[C@@H]2C[C@@H](F)CN2C(=O)C2(C(F)(F)F)CC(F)(F)C2)C2CC2)CC=CCCCCNC(=O)[C@H](Cc2cc(Cl)ccc2C2=CCOCC2)N(C)C1=O [Example 17],90 nM,240 nM,560 nM,17.9 µM,4110 nM,20 nM,,,
"CC(C)C[C@@H]1NC(=O)[C@@H](N(C)C(=O)[C@@H](NC(=O)[C@@H]2C[C@@H](F)CN2C(=O)C2(C(F)(F)F)CC(F)(F)C2)C2CC2)CCCCCCCN(C)C(=O)[C@H](Cc2cc(Cl)ccc2-c2ccc(N3CCO[C@@H](CN(C)C)C3)cc2)N(C)C1=O [Example 410] ({cBuCO(3,3-F2-1-CF3)}-[Pro(trans-4-F)][Gly(cPr)][NMehhhLys(Me)]L[X48]; lactam 3-C)",20 nM,10 nM,10 nM,2 µM,650 nM,20 nM,,,
"CC(C)C[C@@H]1NC(=O)[C@@H](N(C)C(=O)[C@@H](NC(=O)[C@@H]2C[C@@H](F)CN2C(=O)C2(C(F)(F)F)CC(F)(F)C2)C2CC2)CCCCCCCN(C)C(=O)[C@H](Cc2cc(Cl)ccc2-c2ccc(-c3cnn(C4CCN(C)CC4)c3)cc2)N(C)C1=O [Example 380] ({cBuCO(3,3-F2-1-CF3)}-[Pro(trans-4-F)][Gly(cPr)][NMehhhLys(Me)]L[X39]; lactam 3-C)",30 nM,20 nM,30 nM,1.17 µM,2170 nM,20 nM,,,
CC(=O)N1CC=C(c2ccc(Cl)cc2C[C@H]2C(=O)NCCC=CCCC[C@H](N(C)C(=O)[C@@H](NC(=O)[C@@H]3C[C@@H](F)CN3C(=O)C3(C(F)(F)F)CC(F)(F)C3)C3CC3)C(=O)N[C@@H](CC(C)C)C(=O)N2C)CC1 [Example 286],80 nM,60 nM,50 nM,6.5 µM,4020 nM,20 nM,,,
"CC(C)C[C@@H]1NC(=O)[C@@H](N(C)C(=O)[C@@H](NC(=O)[C@@H]2C[C@@H](F)CN2C(=O)C2(C(F)(F)F)CC(F)(F)C2)C2CC2)CCCCCCCN(C)C(=O)[C@H](Cc2cc(Cl)ccc2-c2cnc3ccnn3c2)N(C)C1=O [Example 172] ({cBuCO(3,3-F2-1-CF3)}-[Pro(trans-4-F)][Gly(cPr)][NMehhhLys(Me)]L[X35]; lactam 3-C)",60 nM,30 nM,60 nM,13.7 µM,2430 nM,20 nM,,,
"CC(C)C[C@@H]1NC(=O)[C@@H](N(C)C(=O)[C@@H](NC(=O)[C@@H]2C[C@@H](F)CN2C(=O)C2(C(F)(F)F)CC(F)(F)C2)C2CC2)CCCCCCCN(C)C(=O)[C@H](Cc2cc(Cl)ccc2-c2ccc(C3CCN(C)CC3)cc2)N(C)C1=O [Example 358] ({cBuCO(3,3-F2-1-CF3)}-[Pro(trans-4-F)][Gly(cPr)][NMehhhLys(Me)]L[X31]; lactam 3-C)",20 nM,10 nM,10 nM,2.13 µM,550 nM,20 nM,,,
"CC(C)C[C@@H]1NC(=O)[C@@H](N(C)C(=O)[C@@H](NC(=O)[C@@H]2C[C@@H](F)CN2C(=O)C2(C(F)(F)F)CC(F)(F)C2)C2CC2)CCCCCCCN(C)C(=O)[C@H](Cc2cc(Cl)ccc2-c2cnc3c(cnn3C)c2)N(C)C1=O [Example 250] ({cBuCO(3,3-F2-1-CF3)}-[Pro(trans-4-F)][Gly(cPr)][NMehhhLys(Me)]L[X16]; lactam 3-C)",,30 nM,30 nM,5.55 µM,,,30 nM,1620 nM,20 nM
"CC(C)C[C@@H]1NC(=O)[C@@H](N(C)C(=O)[C@@H](NC(=O)[C@@H]2C[C@@H](F)CN2C(=O)C2(C(F)(F)F)CC(F)(F)C2)C2CC2)CCCCCCCNC(=O)[C@H](Cc2cc(Cl)ccc2-c2cccnc2)N(C)C1=O [Example 276] ({cBuCO(3,3-F2-1-CF3)}-[Pro(trans-4-F)][Gly(cPr)][NMe(hhhLys)]L[X66]; lactam 3-C)",30 nM,20 nM,20 nM,23.4 µM,700 nM,20 nM,,,
"CC(C)C[C@@H]1NC(=O)[C@@H](N(C)C(=O)[C@@H](NC(=O)[C@@H]2C[C@@H](F)CN2C(=O)C2(C(F)(F)F)CC(F)(F)C2)C2CC2)CCCCCCCN(C)C(=O)[C@H](Cc2cc(Cl)ccc2-c2cnc3c(c2)ncn3C)N(C)C1=O [Example 177] ({cBuCO(3,3-F2-1-CF3)}-[Pro(trans-4-F)][Gly(cPr)][NMehhhLys(Me)]L[X116]; lactam 3-C)",20 nM,10 nM,10 nM,8.96 µM,460 nM,20 nM,,,
"Cc1ccc(Cl)cc1C[C@H]1C(=O)NCCCCCCC[C@H](N(C)C(=O)[C@@H](NC(=O)[C@@H]2C[C@@H](F)CN2C(=O)C2(C(F)(F)F)CC(F)(F)C2)C2CC2)C(=O)N[C@@H](CC(C)C)C(=O)N1C [Example 270] ({cBuCO(3,3-F2-1-CF3)}-[Pro(trans-4-F)][Gly(cPr)][NMe(hhhLys)]L[X4]; lactam 3-C)",60 nM,80 nM,70 nM,13.4 µM,370 nM,20 nM,,,
"Cc1nnc(-c2ccc(Cl)cc2C[C@H]2C(=O)NCCCCCCC[C@H](N(C)C(=O)[C@@H](NC(=O)[C@@H]3C[C@@H](F)CN3C(=O)C3(C(F)(F)F)CC(F)(F)C3)C3CC3)C(=O)N[C@@H](CC(C)C)C(=O)N2C)o1 [Example 160] ({cBuCO(3,3-F2-1-CF3)}-[Pro(trans-4-F)][Gly(cPr)][NMe(hhhLys)]L[X44]; lactam 3-C)",20 nM,20 nM,20 nM,11.5 µM,270 nM,20 nM,,,
